The subject of assay [1] is HCV RNA replication (HCV type 1b replicon in Huh-7 luc/neo cells). In words: HCV replicon assay (Huh-Luc, luciferase read-out). It is filed as cell-based. Particulars: Hepatitis C virus, Huh-7, 72 h, HCV replicon test, three days incubation. An excerpt: The EC50 ratio between the active ingredients of formula I, II and III in the combinations of the invention may vary. As used herein the term “EC50 ratio” refers to the ratio of the EC50 value of the compound of formula I to the EC50 value of the compound of formula II, and to the EC50 value of the compound of formula III, said EC50 values being obtained in the HCV replicon test. The latter in particular is the test method described hereinafter.
The in vitro antiviral activity against HCV of the compound of formula I or of formula II or of formula III can be tested in a cellular HCV replicon system based on Lohmann et al. (1999) Science 285:110-113, with the further modifications described by Krieger et al. (2001) Journal of Virology 75: 4614-4624 (incorporated herein by reference), which is further exemplified in the examples section. […]
The replicon cells were plated in 384 well plates in the presence of the test and control compounds which were added in various concentrations. Following an incubation of three days, HCV replication was measured by assaying luciferase activity (using standard luciferase assay substrates and reagents, and a Perkin Elmer ViewLux™ ultraHTS microplate imager). […] The inhibitory activity of the compound was monitored on the Huh-Luc cells, enabling a dose-response curve for each test compound. […]
For orientation: Replicon systems follow genome replication, usually without infectious particles.

For assay [2] the test system is unchanged. The conditions noted are these: HCV replicon test; reported in WO2010/003658; cited from earlier work.

Like-named read-outs stand apart in the source and are kept apart here.

For `COc1ccc2c(O[C@@H]3C[C@H]4C(=O)N[C@]5(C(=O)NS(=O)(=O)C6CC6)C[C@H]5C=CCCCCN(C)C(=O)[C@@H]4C3)cc(-c3nc(C(C)C)cs3)nc2c1C` (stereo in doubt) [compound I, (1R,4R,6S,15R,17R)-cis-N-[17-[2-(4-isopropylthiazole-2-yl)-7-methoxy-8-methyl-quinolin-4-yloxy]-13-methyl-2,14-dioxo-3,13-diazatricyclo[13.3.0.0^4,6]octadec-7-ene-4-carbonyl](cyclopropyl)sulfonamide], the 50% effective concentration (EC50) in assay [1] is 8 nM.
On to `C[C@@H]1[C@H](n2ccc(N)nc2=O)O[C@@](CO)(N=[N+]=[N-])[C@H]1O` [compound II, 4-amino-1-((2R,3S,4S,5R)-5-azido-4-hydroxy-5-hydroxymethyl-3-methyl-tetrahydrofuran-2-yl)-1H-pyrimidin-2-one], for which the concentration giving a half-maximal response (EC50) in assay [1] stood at 5000 nM.
For the compound `COc1ccc2c(c1)C=C1Cn3c-2c(C2CCCCC2)c2ccc(cc23)C(=O)NS(=O)(=O)N(C)CCOCCN(C)C1=O` [compound III], in assay [2], the EC50 is 70 nM.

The EC50 is the concentration at which the effect is half-maximal.

The values are drawn from US20130028865A1, “Combination of a Macrocyclic Inhibitor of HCV, A Non-Nucleoside and a Nucleoside” (MEDIVIR AB, priority 2010, published 2013).
